Laboratory results: patent US6160011A (priority 1998, dated 2000)
Where two headings read alike, the source gives them in different places.

Tests used:
sperm production in men = details: cited from earlier work
[1] = target: T1, cytosolic androgen receptor (AR) (Rattus norvegicus, UniProt P15207); test: biochemical; type: binding, Sprague-Dawley rats
T1 construct: The supernatant (cytosol) containing AR protein was removed and stored; from tissue; host or cells: ventral prostate cytosol of castrated male Sprague-Dawley rats
T1 sequence (P15207 1-902): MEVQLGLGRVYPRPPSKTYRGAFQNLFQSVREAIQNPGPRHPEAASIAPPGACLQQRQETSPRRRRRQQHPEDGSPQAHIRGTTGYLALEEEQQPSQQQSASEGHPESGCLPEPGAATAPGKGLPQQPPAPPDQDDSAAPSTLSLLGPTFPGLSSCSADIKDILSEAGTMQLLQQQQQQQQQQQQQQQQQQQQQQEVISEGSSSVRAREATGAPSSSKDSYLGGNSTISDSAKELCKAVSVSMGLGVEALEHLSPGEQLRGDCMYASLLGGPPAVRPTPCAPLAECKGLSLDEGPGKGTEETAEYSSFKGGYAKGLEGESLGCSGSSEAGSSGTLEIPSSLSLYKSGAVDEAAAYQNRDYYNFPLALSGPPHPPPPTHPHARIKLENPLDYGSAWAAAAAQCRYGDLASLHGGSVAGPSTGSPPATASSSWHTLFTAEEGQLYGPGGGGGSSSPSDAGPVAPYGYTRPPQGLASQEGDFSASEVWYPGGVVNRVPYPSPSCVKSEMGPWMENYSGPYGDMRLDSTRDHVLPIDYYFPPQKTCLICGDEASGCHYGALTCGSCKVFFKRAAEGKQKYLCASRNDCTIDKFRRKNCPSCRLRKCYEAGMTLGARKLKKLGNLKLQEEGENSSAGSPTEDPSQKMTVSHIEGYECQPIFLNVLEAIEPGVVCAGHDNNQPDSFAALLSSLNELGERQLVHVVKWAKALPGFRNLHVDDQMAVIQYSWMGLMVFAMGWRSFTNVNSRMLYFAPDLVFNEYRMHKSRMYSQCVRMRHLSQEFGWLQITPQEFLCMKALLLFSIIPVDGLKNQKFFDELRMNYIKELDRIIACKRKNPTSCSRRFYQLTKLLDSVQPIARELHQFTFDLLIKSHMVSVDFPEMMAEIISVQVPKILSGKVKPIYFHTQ

[2] = target: T1, cytosolic androgen receptor (AR); test: Saturation binding of 3H-MIB to AR in cytosol (Scatchard); parameters: species or system Sprague-Dawley rats; details: mean±S.D., n=3; 4° C., 18 hours
[3] = tested on: androgen receptor (in vivo functional activity); details: vs other antiandrogen therapies; cited from earlier work
[4] = cited from earlier work
[5] = tested on: AR (plasmid pCMVhAR) in CV-1 cells; test: Transcriptional activation (AR-mediated luciferase reporter, cotransfected CV-1 cells); type: cell-based; details: for minimal effective concentration: read-out: Potency: lowest concentration of the ligand capable of maximally stimulating AR-mediated transcription
Experimental: The agonist activity of each ligand was examined using transfected CV-1 cells (American Type Culture Collection, Rockville, Md.). CV-1 cells were maintained in DMEM containing 10% FBS at 37° C. in a humidified atmosphere containing 5% carbon dioxide. DMEM without phenol red was used during transfection studies. One day before transfection, monolayer cells were removed from flasks and plated at a density of 4.5×10^5 cells/well in 6-well tissue culture plates. Cells in each well were then cotransfected with 100 ng of an AR expression vector (plasmid pCMVhAR; provided by Dr. Elizabeth Wilson at The University of North Carolina, Chapel Hill, N.C.), 2.5 μg of a luciferase reporter vector (plasmid pMMTV-Luc; provided by Dr. Ronald Evans at The Salk Institute, San Diego, Calif.), and 2.5 μg of a control β-galactosidase vector (plasmid pSV-β-galactosidase; Promega Corporation, Madison, Wis.). Transfection was performed using Lipofectamine™ according to the manufacturer's instructions (Life Technologies, Gaithersburg, Md.). Ten hours after adding the transfection reagent, cells were washed twice with DMEM containing 0.2% FBS and then returned to the incubator. After an additional 10 to 12 hours of incubation, the medium was removed and replaced with DMEM containing 0.2% FBS and various concentrations of DHT or the ligand of interest. Final ligand concentrations were 0.1, 1, 10, 50, 100, 500, and 1,000 nM. The drug-containing medium was replaced after 24 hours of incubation to minimize the possible effects of ligand degradation on measurement of transcriptional activation. Control studies in which neither DHT nor ligand were added to the medium were also performed. Cells were washed with phosphate buffered saline, pH 7.4, after 48 hours of drug treatment and harvested using 350 μL of reporter lysis buffer (Promega Corporation, Madison, Wis.). Cell lysates were transferred to a microcentrifuge tube, vortexed briefly, and centrifuged at 12,000 g for 2 minutes; An aliquot (150 μL) of supernatant was used for determination of β-galactosidase activity in each well using a spectrophotometer (Cary Model 1E, Varian Associates, Sunnyvale, Calif.) set at a wavelength of 420 nm. A separate aliquot (100 μL) was used for determination of luciferase activity assay (Luciferase Assay System, Promega Corporation, Madison, Wis.) using an automated luminometer (Model AutoLumat LB953, Wallac Inc., Gaithersburg, Md.). Viable cell numbers and transfection efficiency in each well were normalized by expressing the transcriptional activation as a ratio of the luciferase activity to β-galactosidase activity in individual wells. […] All experiments were performed in triplicate. Potency was reported as the lowest concentration of the ligand used during transfection experiments capable of producing maximal AR-mediated transcriptional activation.

[6] = oral administration; cited from earlier work
AR = test: Covalent (irreversible) binding to the AR; details: studies not described
[7] = 3H-MIB 1 nM, 4° C., 18 hours, R-isomers of C-1 to C-5, read-out: Ki (Table 1)
[8] = CV-1, 48 h, read-out: Agonist Activity (% of DHT): maximal percentage of transcriptional activation observed for each ligand
[9] = CV-1, read-out: agonist activity
[10] = healthy male volunteers, single oral dose of the racemic mixture

CCCCCCC(=O)O[C@H]1CC[C@H]2[C@@H]3CCC4=CC(=O)CC[C@]4(C)[C@H]3CC[C@]12C [testosterone enanthate]
testosterone peak levels after injection (in words) (sperm production in men; immediately following intramuscular injection): supraphysiologic peak levels of testosterone | azoospermia or severe oligospermia (less than 3 million sperm per ml) and infertility, share of men (sperm production in men; weekly intramuscular injections, WHO report): 98%

CC(=O)N(C(C)=O)c1ccc(SC[C@](C)(O)C(=O)Nc2ccc(C#N)c(C(F)(F)F)c2)cc1 [C-9]
Ki [1]: 2.64 nM | RBA (%): (IC50 of DHT)/(IC50 of a ligand)*100% [1]: 10.2%

C[C@@H]1CC2=CC(=O)CC[C@@H]2[C@H]2CC[C@@]3(C)[C@@H](CC[C@]3(C)O)[C@@H]21 [3H-MIB, (17α-methyl-^3 H)-Mibolerone]
Kd [2]: 0.19 ± 0.01 nM

CC(=O)Nc1ccc(SC[C@](C)(O)C(=O)Nc2ccc(C#N)c(C(F)(F)F)c2)cc1 [C-8 (R)]
Ki [1]: 1 nM | RBA (%): (IC50 of DHT)/(IC50 of a ligand)*100% [1]: 26.9%

CC(O)(CS(=O)(=O)c1ccc(F)cc1)C(=O)Nc1ccc(C#N)c(C(F)(F)F)c1 (racemic) [Casodex]
tolerance (in words) [3]: improved tolerance | oral absorption ([4]; after oral administration): well absorbed after oral administration | biological half-life ([4]; in man): 6 days

C[C@](O)(CI)C(=O)Nc1ccc(C#N)c(C(F)(F)F)c1 [C-4]
Ki [1, 7]: 2.79 ± 1.35 nM | Emax [5, 8]: 20.5 ± 7.57% | minimal effective concentration ([5]; CV-1, 48 h): 0.5 µM | Emax [5, 9]: < 20%

CC(=O)Nc1ccc(S(=O)(=O)C[C@](C)(O)C(=O)Nc2ccc(C#N)c(C(F)(F)F)c2)cc1 [C-7]
Ki [1]: 1.7 nM | RBA (%): (IC50 of DHT)/(IC50 of a ligand)*100% [1]: 15.9%

C[C@](O)(CS(=O)(=O)c1ccc(F)cc1)C(=O)Nc1ccc(C#N)c(C(F)(F)F)c1 [R-Bicalutamide, reference compound]
elimination half-life [4, 10]: 101 h | AR-mediated transcriptional activation (in words) [5]: unable to stimulate AR-mediated transcriptional activation at even the highest concentrations tested | Emax [5, 8]: 8.28 ± 2.66% | Emax at 1 µM ([5]; CV-1, read-out: mean agonist activity at 1,000 nM): 8.3%

CC(=O)Nc1ccc(SC[C@@](C)(O)C(=O)Nc2ccc(C#N)c(C(F)(F)F)c2)cc1 [C-8 (S)]
Ki [1]: 141 nM | RBA (%): (IC50 of DHT)/(IC50 of a ligand)*100% [1]: 0.19%

C[C@]12CC[C@H]3[C@@H](CCC4=CC(=O)CC[C@@]43C)[C@@H]1CC[C@@H]2O [testosterone]
oral absorption / androgenic effect (in words) [6]: readily absorbed after oral administration, but demonstrates little androgenic effect due to rapid hepatic metabolism

C[C@](O)(CSc1ccc(NC(=O)CCl)cc1)C(=O)Nc1ccc(C#N)c(C(F)(F)F)c1 [C-1 (R)]
covalent (irreversible) binding to AR (AR): does not covalently (i.e., irreversibly) bind the AR

C[C@@](O)(CS(=O)(=O)c1ccc(F)cc1)C(=O)Nc1ccc(C#N)c(C(F)(F)F)c1 [S-Casodex]
elimination half-life (t1/2) [4, 10]: 19 h

CCC(=O)N(C(=O)CC)c1ccc(SC[C@](C)(O)C(=O)Nc2ccc(C#N)c(C(F)(F)F)c2)cc1 [C-11]
Ki [1]: > 1000 nM | RBA (%): (IC50 of DHT)/(IC50 of a ligand)*100% [1]: < 0.10%

CCC(=O)Nc1ccc(SC[C@](C)(O)C(=O)Nc2ccc(C#N)c(C(F)(F)F)c2)cc1 [C-10]
Ki [1]: 3.81 nM | RBA (%): (IC50 of DHT)/(IC50 of a ligand)*100% [1]: 7.08%

C[C@]12CCC(=O)C[C@@H]1CC[C@@H]1[C@@H]2CC[C@]2(C)[C@@H](O)CC[C@@H]12 [DHT, dihydrotestosterone, reference compound]
Emax [5, 8]: 100%

C[C@](O)(CBr)C(=O)Nc1ccc(C#N)c(C(F)(F)F)c1 [C-2]
Ki [1, 7]: 7.98 ± 0.86 nM | Emax [5, 8]: 18.5 ± 5.08% | minimal effective concentration ([5]; CV-1, 48 h): 0.5 µM | Emax [5, 9]: < 20%

C[C@](O)(CI)C(=O)Nc1ccc([N+](=O)[O-])c(C(F)(F)F)c1 [C-5]
Ki [1, 7]: 0.86 ± 0.11 nM | Emax [5, 8]: 88.6 ± 18% | minimal effective concentration ([5]; CV-1, 48 h): 0.5 µM
